Here are results for three molecules from ChEMBL document CHEMBL1158244, “A new norcembranoid dimer from the red sea soft coral Sinularia gardineri” (1996).

What all share (assay type): functional
One test deals with HT-29. Description: Cytotoxicity against human HT29 cells.
Another test concerns SK-MEL-28. Description: Cytotoxicity against human SK-MEL-28 cells.
The next test concerns P388. Description: Cytotoxicity against mouse P388 cells.
For a further test, the system named is A549. Description: Cytotoxicity against human A549 cells.
The next test deals with Cryptococcus neoformans. Description: Antifungal activity against Cryptococcus neoformans at 1 mg/mL. The note with it: read-out: IZ.
A further test relates to Candida albicans. Nature of the test: Antifungal activity against Candida albicans B311 at 1 mg/mL. The note with it: read-out: IZ.

For `CC(C)C1=C[C@@H]2[C@H](CC[C@@]2(C)O)[C@@](C)(O)CC1` [GUAIANEDIOL], the Activity in the test with HT-29 was 5 µg/mL; with SK-MEL-28, 5 µg/mL; in the test with P388, 1 µg/mL; in the test on A549 it was 2.5 µg/mL.
Consider `C[C@@H]1[C@H](O)[C@@H](C)/C=C/C=C/C=C/C=C/C=C/C=C/C=C/[C@H](O[C@@H]2O[C@H](C)[C@@H](O)[C@H](N)[C@@H]2O)C[C@@H]2O[C@](O)(C[C@@H](O)C[C@@H](O)[C@H](O)CC[C@@H](O)C[C@@H](O)CC(=O)O[C@H]1C)C[C@H](O)[C@H]2C(=O)O` [AMPHOTERICIN B], for which the zone of inhibition at 1000 µg/mL is 10 mm in the test on Cryptococcus neoformans and 12 mm with Candida albicans.
Take `C=C(C)[C@H]1CC[C@@]23O[C@@H]2[C@@H](C[C@@]2(C)CC(=O)[C@H](CC(=O)C1)O2)OC(=O)[C@@]12CC[C@H](C(=C)C)CC(=O)C[C@H]4O[C@](C)(CC4=O)C[C@@H](OC3=O)[C@@H]1O2` [SINGARDIN]: the Activity with HT-29 was 5 µg/mL; in the test with SK-MEL-28 it was 5 µg/mL; with P388, 1 µg/mL; in the test with A549, 2.5 µg/mL. In addition, the zone of inhibition at 1000 µg/mL with Cryptococcus neoformans and in the test on Candida albicans was 3 mm in each case.
